Measured values reported in patent publication US12030867B2, “Hsp90β selective inhibitors” (University of Notre Dame du Lac, priority 2018, dated 2024).

How the values were obtained:
Hsp90β = Hsp90β (Homo sapiens (Human), UniProt P08238); test: fluorescence polarization (FP) assay, competitive displacement of FITC labeled Geldanamycin; assay type: binding; conditions: FP assay
Experimental: Once prepared, the compounds were evaluated for their binding affinities against the cytosolic isoforms, Hsp90α and Hsp90β by measuring their ability to competitively displace FITC labeled Geldanamycin (GDA) in a fluorescence polarization assay (apparent Kd's listed in Table 1). […] The alkyne (4k) was investigated to determine whether a linear substituent could project into the subpocket and affect selectivity.

[1] = system: screened cancer cell lines; test: inhibitory activity against a variety of cancer cell lines; assay type: cell-based
[2] = system: Hsp90 client proteins in HCT-116 cells; test: western blot analysis following treatment of HCT-116 cells; assay type: cell-based
Experimental: (§1) 0.5 μM GDA was included as positive control and vehicle (D=DMSO) as negative control. […] Hsp90α siRNA was included as positive control and vehicle (lipofectamine) as negative control.

hERG channel = test: western blot analysis of hERG channel trafficking in hERG-HEK293 cells; assay type: cell-based; conditions: HEK293 cells expressing the hERG channel
Experimental: as §1

[3] = system: HCT-116 colon cancer cells; test: cells; conditions: Homo sapiens
MOLM-13 leukemia cells = test: cells; conditions: Homo sapiens
K562 leukemia cells = test: cells; conditions: Homo sapiens
[4] = system: UM-UC3 bladder cancer cells; test: cells; conditions: Homo sapiens, UMUC3
[5] = system: HT1376 bladder cancer cells; test: cells; conditions: Homo sapiens, HT-1376
[6] = system: HTB-9 bladder cancer cells; test: tissue or blood
[7] = system: HTB-5 bladder cancer cells; test: tissue or blood
Trap-1 = Trap-1 (Homo sapiens (Human), UniProt Q12931); test: binding affinity towards Trap-1
Sequence of Trap-1 (Q12931 60-704): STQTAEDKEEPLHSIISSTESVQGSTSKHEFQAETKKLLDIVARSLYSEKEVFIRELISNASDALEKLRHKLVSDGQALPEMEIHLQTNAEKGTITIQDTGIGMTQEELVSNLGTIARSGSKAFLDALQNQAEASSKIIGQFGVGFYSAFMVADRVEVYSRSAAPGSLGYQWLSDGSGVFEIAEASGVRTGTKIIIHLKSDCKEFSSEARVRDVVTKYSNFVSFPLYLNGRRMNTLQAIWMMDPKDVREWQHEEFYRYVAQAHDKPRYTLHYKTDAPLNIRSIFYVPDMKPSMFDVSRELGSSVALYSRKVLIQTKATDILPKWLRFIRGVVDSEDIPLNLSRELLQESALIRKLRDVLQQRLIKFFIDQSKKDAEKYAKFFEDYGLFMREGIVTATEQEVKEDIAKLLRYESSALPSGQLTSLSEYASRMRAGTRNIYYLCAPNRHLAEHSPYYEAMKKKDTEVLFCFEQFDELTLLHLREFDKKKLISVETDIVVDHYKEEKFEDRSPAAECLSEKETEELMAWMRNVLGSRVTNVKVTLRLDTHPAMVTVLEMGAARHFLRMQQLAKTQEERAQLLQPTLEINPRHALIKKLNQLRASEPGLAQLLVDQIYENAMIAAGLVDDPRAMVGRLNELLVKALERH

Grp94 = Grp94 (Homo sapiens (Human), UniProt P14625); test: binding affinity towards Grp94
Sequence of Grp94 (P14625 22-803, species assumed): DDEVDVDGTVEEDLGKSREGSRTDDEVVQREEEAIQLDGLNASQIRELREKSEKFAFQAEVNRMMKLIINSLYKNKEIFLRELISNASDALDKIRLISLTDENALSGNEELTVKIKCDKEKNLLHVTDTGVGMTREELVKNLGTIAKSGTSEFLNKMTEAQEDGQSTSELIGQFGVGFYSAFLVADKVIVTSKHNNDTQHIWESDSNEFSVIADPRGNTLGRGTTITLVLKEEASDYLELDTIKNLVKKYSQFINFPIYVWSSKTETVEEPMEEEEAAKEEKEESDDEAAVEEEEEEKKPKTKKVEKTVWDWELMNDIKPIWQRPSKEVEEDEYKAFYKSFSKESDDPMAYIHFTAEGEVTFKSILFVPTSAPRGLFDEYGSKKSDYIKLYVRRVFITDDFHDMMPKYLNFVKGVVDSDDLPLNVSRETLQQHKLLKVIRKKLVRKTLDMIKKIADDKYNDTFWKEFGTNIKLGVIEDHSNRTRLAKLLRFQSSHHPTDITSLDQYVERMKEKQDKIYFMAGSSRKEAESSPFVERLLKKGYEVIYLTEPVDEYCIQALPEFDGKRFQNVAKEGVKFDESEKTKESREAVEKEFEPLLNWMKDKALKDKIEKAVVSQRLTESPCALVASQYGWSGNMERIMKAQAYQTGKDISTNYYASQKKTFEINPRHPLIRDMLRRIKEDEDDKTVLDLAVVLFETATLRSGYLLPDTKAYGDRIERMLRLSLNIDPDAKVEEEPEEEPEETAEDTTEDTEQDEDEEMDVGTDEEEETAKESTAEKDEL

[8] = system: Hsp90 client proteins in UM-UC-3 cells; test: western blot analysis of client proteins in UM-UC-3 cells; assay type: cell-based; conditions: 24-hour incubation
Experimental: Since Hsp90 inhibition induces the degradation of Hsp90-dependent substrates via the ubiquitin-proteosome pathway, the levels of both kinase and non-kinase Hsp90 clients were assessed via western blot analysis. […]. […] […]. Survivin, which is an Hsp90α dependent substrate was not affected, providing direct evidence for isoform-selective inhibition in a cellular context.

HT29 cells = test: cells; conditions: Homo sapiens, HT-29
other colon cancer cells = test: cells
[9] = system: UM-UC-3 bladder cancer cells; test: cells; conditions: Homo sapiens, UMUC3
[10] = system: PC3-MM2 prostate cancer cells; test: cells; conditions: Homo sapiens, PC3MM2
[11] = system: LNCap-LN3 prostate cancer cells; test: cells
[12] = system: C4-2b prostate cancer cells; test: cells
[13] = system: LAPC4 prostate cancer cells; test: cells; conditions: Homo sapiens
prostate cancer cells = test: cells; conditions: read-out: efficacy against prostate cancer cells
T24 bladder cancer cells = test: tissue or blood

Sequence of Hsp90β (P08238 whole entry, canonical isoform): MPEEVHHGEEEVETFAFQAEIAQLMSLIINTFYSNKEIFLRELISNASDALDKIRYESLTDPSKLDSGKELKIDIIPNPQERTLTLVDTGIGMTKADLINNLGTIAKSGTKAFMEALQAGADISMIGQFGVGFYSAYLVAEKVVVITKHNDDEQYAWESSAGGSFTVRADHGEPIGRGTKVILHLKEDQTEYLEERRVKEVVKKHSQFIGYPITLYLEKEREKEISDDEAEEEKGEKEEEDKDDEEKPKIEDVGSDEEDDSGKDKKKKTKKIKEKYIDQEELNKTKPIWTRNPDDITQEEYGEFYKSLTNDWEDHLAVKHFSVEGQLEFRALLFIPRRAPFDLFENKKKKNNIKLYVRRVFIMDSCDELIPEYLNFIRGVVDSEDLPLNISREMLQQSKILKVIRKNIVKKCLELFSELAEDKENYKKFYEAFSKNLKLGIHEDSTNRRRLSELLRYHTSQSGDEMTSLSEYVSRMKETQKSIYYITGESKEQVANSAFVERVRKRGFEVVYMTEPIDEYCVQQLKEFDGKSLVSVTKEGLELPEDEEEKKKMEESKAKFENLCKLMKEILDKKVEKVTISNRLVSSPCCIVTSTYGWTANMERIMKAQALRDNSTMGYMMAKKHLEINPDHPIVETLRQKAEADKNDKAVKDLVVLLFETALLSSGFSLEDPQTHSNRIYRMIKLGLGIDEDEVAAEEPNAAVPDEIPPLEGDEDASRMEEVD

CCCC1Cc2cc(-n3nc(C)c4c3CC(C)(C)CC4=O)cc(N[C@H]3CC[C@H](O)CC3)c2C(=O)N1 (some centres unmarked) [Compound 6a, 8-(((1r,4r)-4-hydroxycyclohexyl)amino)-3-propyl-6-(3,6,6-trimethyl-4-oxo-4,5,6,7-tetrahydro-1H-indazol-1-yl)-3,4-dihydroisoquinolin-1(2H)-one]
affinity for Hsp90β (in words) (Hsp90β): increased binding affinity | selectivity for Hsp90β over Hsp90α (in words) (Hsp90β): enhanced selectivity | IC50 values against the screened cancer cell lines (in words) [1]: submicromolar | CDK4, CDK6, cIAP1 and CXCR4 levels (Hsp90β-dependent clients) [2]: induced the degradation | total levels of Akt-1 and Raf-1 [2]: not affected | Hsf-1, Hsp70 and Hsp90 levels ([2]; 24 h exposure): induced the degradation | hERG channel maturation and trafficking (hERG channel): not affected | IC50 [3]: 265 nM | IC50 (MOLM-13 leukemia cells): 39.4 nM | IC50 (K562 leukemia cells): 498 nM | IC50 [4]: 1050 nM | IC50 [5]: 716 nM | IC50 [6]: 811 nM | IC50 [7]: 935 nM

CCCc1cc2cc(-n3nc(C)c4c3CC(C)(C)CC4=O)cc(N[C@H]3CC[C@H](O)CC3)c2c(=O)[nH]1 [Compound 4d, 8-(((1r,4r)-4-hydroxycyclohexyl)amino)-3-propyl-6-(3,6,6-trimethyl-4-oxo-4,5,6,7-tetrahydro-1H-indazol-1-yl)isoquinolin-1(2H)-one]
Kd (Trap-1): > 5000 nM | Kd (Grp94): > 5000 nM | CXCR4 and B-raf levels (Hsp90β-dependent clients) [8]: marked dose-dependent reduction | FGFR3 level [8]: marked dose-dependent reduction | Hsp27 and Hsf-1 levels (heat shock related proteins) [8]: declined upon increasing doses | Survivin level (Hsp90α dependent substrate) [8]: not affected | GI50 (HT29 cells): 26 nM | GI50 (other colon cancer cells): 50 to 80 nM | GI50 [9]: 508 nM | GI50 [10]: 1240 nM | GI50 [11]: 1180 nM | GI50 [12]: 1030 nM | GI50 [13]: 2560 nM | IC50 (prostate cancer cells): 1000 to 2500 nM | GI50 (T24 bladder cancer cells): 197 nM
